pIC50: −log10 of the molar value.
How the values were obtained:
Assay in all cases: Ellman assay, […] nm, head homogenate
Assay type in all cases: biochemical, Haematobia irritans
[1] = target: T1, acetylcholinesterase (AChE), BTU field population; settings: 0.4 mM acetylthiocholine, pH 7.8 phosphate, 25 °C, 10 min preincubation; covalent
T1 construct: gene Ace; native enzyme in homogenate of five pooled fly heads; mixed genotypes, G262A in a small part of the flies, other mutations not screened

[2] = target: T2, acetylcholinesterase (AChE), Ona field population; settings: 0.4 mM acetylthiocholine, pH 7.8 phosphate, 25 °C, 10 min preincubation; covalent; stated gain
T2 construct: gene Ace; native enzyme in homogenate of five pooled fly heads; mixed genotypes, G262A in a small part of the flies, other mutations not screened

[3] = target: T3, acetylcholinesterase (AChE), Labelle field population; settings: 0.4 mM acetylthiocholine, pH 7.8 phosphate, 25 °C, 10 min preincubation; covalent
T3 construct: gene Ace; native enzyme in homogenate of five pooled fly heads

[4] = target: T4, acetylcholinesterase (AChE), Kerrville susceptible strain; settings: 0.4 mM acetylthiocholine, pH 7.8 phosphate, 25 °C, 10 min preincubation; covalent
T4 construct: gene Ace; not purified; G262A absent in this strain

CCOP(=O)(OCC)Oc1cc(C)nc(C(C)C)n1 [diazoxon]
pIC50 [1]: 8.21 | pIC50 [2]: 7.69 | pIC50 [3]: 8.04 | pIC50 [4]: 8.09
